From patent publication US11925194B2, “Antimicrobially active mixtures” (SYMRISE AG, priority 2017, dated 2024)

Tests used:
C. albicans = assay: Germ load test of aroma and extract combinations, pure water pH 7; type: cell-based, Candida albicans; conditions: 400 ppm in sample
Text: (§1) In the scope of a further test, the antimicrobial effect of aroma and extract combinations was examined. […] For example, grape stone extract and the flavouring agent vanillic acid have a different effect against yeasts. In the combination, however, also an effect against fungi and an optimal effect against yeasts was observed. The pomegranate and red berry extract have a lower effect at pH 7 compared to pH 3 (cf. Example 5), the pomegranate extract eliminates S. cerevisiae in less than 14 days at 1000 mg/kg. In combination with Limonene-containing lemon oils, however, the effect can be increased for higher pH values.

S. cerevisiae [1] = assay: as above; type: cell-based, Saccharomyces cerevisiae; conditions: 400 ppm in sample
Text: as §1

Z. bailii = assay: as above; type: cell-based, Zygosaccharomyces bailii; conditions: 400 ppm in sample
Text: as §1

S. cerevisiae [2] = assay: Antimicrobial effect of extracts and fractions, citrate buffer pH 5; type: cell-based, Saccharomyces cerevisiae
Text: For further examination of the antimicrobial effect of different extracts alone, i.e. without a combination with component (B) or fractions thereof according to the invention, exemplary extracts or fractions thereof such as described in Examples 1 to 4 were used. […] The samples were inoculated with 3.8×10^4 CFU/mL […].

Structure (SMILES)	Elimination of C. albicans in less than (time) (C. albicans)	Elimination of S. cerevisiae in less than (time) (S. cerevisiae [1])	Elimination of Z. bailii in less than (time) (Z. bailii)	Reduction in the germination number of S. cerevisiae (in words) (S. cerevisiae [2]; 375 mg/kg, pH 5, 28 days)	Germination number S. cerevisiae after 28 days (S. cerevisiae [2]; dose 375 mg/kg, citrate buffer pH 5, after inoculation 3.80E+04)
COc1cc(C(=O)O)ccc1O [Vanillic acid]	< 24 h	< 14 days	< 24 h		
C/C=C/C=C/C(=O)[O-].[K+] [potassium sorbate]				did not show a significant reduction	1.00E+03 CFU/mL
